Source: paper PMC5451472, “Novel Locally Active Estrogens Accelerate Cutaneous Wound Healing-Part 2” (Scientific Reports, 2017)

Tests used:
[1] = system: ER transcriptional activity; test: Whole body in vivo bioluminescence imaging of ERE-Luc mice, dose-response after s.c. administration; set-up: species or system mouse; conditions: for Photon Emission, whole body: 6 h vs 0 h, n = 4
Source text: To investigate the activity of 1e and 1f at systemic level, we utilized the ERE-Luc reporter mice. The ERE-luc is a transgenic model obtained by random integration of a luciferase reporter driven by an estrogen-responsive promoter. The ubiquitous, regulated expression of luciferase was obtained by flanking the reporter construct with insulators.
Here, the first study we carried out was a large-range dose-response analysis to measure whole body luciferase assay after subcutaneous administration of: (1) the vehicle; (2) corn oil as control; (3) the two compounds 1e and 1f at the dosage of 20 μg/kg, 200 μg/kg, 2 mg/kg and 20 mg/kg. The mice (4 for each experimental group) were subjected to in vivo whole body imaging 6 h after the pharmacological treatment. This time was selected on the basis of previous studies showing that the peak of ER transcriptional activation generally occurs at 6–8 h after administration of the estrogenic compounds[16], [17].
(§1) For the semi-quantitative analysis of in vivo photon emission, animals were injected i.p. with 80 mg/kg of luciferin (Beetle Luciferin Potassium Salt; Promega, Madison, WI, USA) 15 min prior the imaging session. For the imaging, mice were anaesthetized using isofluorane (Isofluorane-Vet; Merial, Lyon, France) and kept under anesthesia during the 5 minutes of the session carried out with a CCD camera: both ventral and dorsal acquisition (Xenogen IVIS Lumina System; Caliper, PerkinElmer company). Photon emission in selected body areas was measured using the Living Image Software (Caliper, PerkinElmer company). The analysis was done in ventral view: whole body, thymus, hepatic area, abdomen, limbs, vagina and in dorsal view in wound area and expressed as photon/second/cm2/steradiant (p/s/cm2/sr).

[2] = system: ER transcriptional activity; test: In vivo BLI time course in wounded ovariectomized ERE-Luc mice, compounds s.c. around the wound; set-up: species or system mouse
Procedure: To study the estrogenic and healing properties of the two compounds, we generated a wound in the ERE-Luc mouse model and tested the activity of the two compounds administered s.c. in the area surrounding the wound as described in the methodology section.
Each group was composed of 4 ERE-Luc females’ mice ovariectomized 2 weeks’ prior the experiment to avoid any interference due to endogenous estrogens. Photon emission was measured in the living animals three times: at 0, 3 and 6 h after s.c. injection.
(§2) ERE-Luc and MITO-Luc mice were ovariectomized at two months of age; the experiment was done 2 weeks after surgery to allow the animals to recover and to decrease the levels of circulating estrogens. The animals were fed ad libitum with a special estrogen free diet (AIN 93 M, Mucedola) (Ciana et al. Endocrinology 2005) and housed in individually ventilated plastic cages within a temperature range of 22–25 °C, relative humidity of 50% ± 10% and under an automatic cycle of 12 h light/dark (lights on at 07:00 am). All animal experimentation was carried out in accordance with the ARRIVE and European Guidelines for Animal Care. All animal experiments were approved by the Italian Ministry of Research and University and controlled by a Departmental panel of experts. For the correct dosage of the compounds, the body weight of the animals (on empty stomach, fasted for at least 12–14 hours) was determined immediately before the treatment.
(§3) Ovariectomy was carried out as previously described. Wound healing was done after shaving by VEET depilatory cream a day before the treatment. The 1 cm full-thickness incisional wound was made through the skin and panniculus carnosus muscle of ovariectomized MITO-luc using a surgical scalpel (blade n°10, carbon steel, Swann-Morton Ltd). Round full-thickness wounds were done by cutting out a section of full-thickness skin (around 9 mm in diameter) using fine scissors on the dorsal skin of the isoflurane-anesthetized animal. For in vivo treatment the compounds were administered onto the subcutaneous area surrounding the wound by multiple subcutaneous injection, immediately after the generation of the wound.
as §1

ERE-Luc mice = test: Uterus weight of ERE-Luc mice; assay type: in vivo, mouse; conditions: 200 µg/kg s.c., 6 h after treatment, n = 4
Source text: The final study aiming at investigating the systemic effect of the NCE was done by measuring the uterus weight of all treated animal as the golden standard for the quantitative measure of estrogenic compounds.

[3] = system: MITO-Luc mice (reporter of mitosis); test: Proliferation in the wound area, in vivo BLI of MITO-Luc mice; set-up: species or system mouse
Source text: Wound healing is a dynamic process consisting of four continuous, overlapping, and precisely programmed phases: hemostasis, inflammation, proliferation and tissue growth (proliferation) and remodeling (maturation). The healing effect of estrogens may be exerted at several levels, certainly the ability of the hormone to accelerate macrophage polarization towards the M2-reparative polarization stage plays a relevant role, however estrogens may also facilitate local cell proliferation and the formation of the granulation tissue, epithelialization, and wound contraction.
The experiments were done with the 1e compound as completely deprived of any activity on the uterus (Fig. 6). […] Photon emission was measured in the wound area at the following time: 0, 24, 48 and 72 hours post-treatment.
as §2
as §3, with “For in vivo treatment the compounds were administered onto the subcutaneous area surrounding the wound by multiple subcutaneous injection, immediately after the generation of the wound.” left out
For the semi-quantitative analysis of in vivo photon emission, animals were injected i.p. with 80 mg/kg of luciferin (Beetle Luciferin Potassium Salt; Promega, Madison, WI, USA) 15 min prior the imaging session. […] Photon emission in selected body areas was measured using the Living Image Software (Caliper, PerkinElmer company). The analysis was done in ventral view: whole body, thymus, hepatic area, abdomen, limbs, vagina and in dorsal view in wound area and expressed as photon/second/cm2/steradiant (p/s/cm2/sr).

With `CCCCOC(=O)CCC#C[C@]1(O)CC[C@H]2[C@@H]3CCc4cc(O)ccc4[C@H]3CC[C@@]21C` [1e, 3,17β-Hydroxy-17α-(4′carbobutoxy-1′-butyn-1′-yl)estra-1,3,5-(10)-triene] the “Photon Emission, whole body” value ([1]; 2 mg/kg s.c.) was 3 x, the “Photon Emission, whole body” value ([1]; 20 mg/kg s.c.) was 12 x and the “expression of the luciferase reporter” value ([1]; 2 and 20 mg/kg s.c., 6 h) was “induced the expression of the luciferase reporter around the area of subcutaneous injection and in some other body areas”. The “effect at systemic level (whole body luciferase)” value ([1]; 20 and 200 μg/kg s.c., 6 h) was “did not induce any measurable effect”, the “photon emission in body areas (whole body, thymus, hepatic area, abdomen, limbs, vagina)” value ([2]; 200 µg/kg s.c. around wound, 3 or 6 h, ovx mice) was “did not observe increased photon emission in any of the body areas” and the “increase of photon emission in the wound area with respect to time 0” value ([2]; 200 µg/kg s.c., 6 hours, trend) was 30%. The “weight of the uterus versus controls” value (ERE-Luc mice) was “indistinguishable from controls”, the “increase of photon emission from wound” value ([3]; 200 µg/kg s.c. around wound, 72 h versus time 0, ovx MITO-Luc) was 87% and the “photon emission from the wound area” value ([3]; 200 µg/kg s.c., 48 hours after administration) was “significantly increased”.
